Assay results reported in article PMC6445164, “Primary mono- and bis-sulfonamides obtained via regiospecific sulfochlorination of N-arylpyrazoles: inhibition profile against a panel of human carbonic anhydrases” (Journal of Enzyme Inhibition and Medicinal Chemistry, 2017).
Where two headings read alike, the source gives them in different places.

How the values were obtained:
hCA I = hCA I (Homo sapiens, UniProt P00915); assay: stopped-flow CA catalysed CO2 hydration assay, hCA I
Experimental: (§1) An applied photophysics stopped-flow instrument has been used for assaying the CA catalysed CO2 hydration activity[21]. […] The CO2 concentrations ranged from 1.7 to 17 mM for the determination of the kinetic parameters and inhibition constants. […] The uncatalysed rates were determined in the same manner and subtracted from the total observed rates. Stock solutions of inhibitor (0.1 mM) were prepared in distilled-deionized water and dilutions up to 0.005 nM were done thereafter with the assay buffer. Inhibitor and enzyme solutions were preincubated together for 15 min at room temperature prior to assay, in order to allow for the formation of the E–I complex. The inhibition constants were obtained by non-linear least-squares methods using PRISM 3 and the Cheng–Prusoff equation, as reported earlier, and represent the mean from at least three different determinations. All CA isoforms were recombinant ones obtained in-house[22–25].

hCA VII = hCA VII (Homo sapiens, UniProt P43166); assay: stopped-flow CA catalysed CO2 hydration assay, hCA VII
hCA VII, sequence (P43166 whole entry): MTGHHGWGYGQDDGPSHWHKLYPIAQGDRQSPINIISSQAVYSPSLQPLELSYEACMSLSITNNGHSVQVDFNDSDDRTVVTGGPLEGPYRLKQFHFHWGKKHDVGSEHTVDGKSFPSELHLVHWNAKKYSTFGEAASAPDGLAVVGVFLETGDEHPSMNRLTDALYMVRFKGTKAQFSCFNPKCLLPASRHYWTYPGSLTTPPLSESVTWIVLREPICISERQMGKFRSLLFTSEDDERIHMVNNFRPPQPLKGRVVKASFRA
Experimental: as §1

hCA IV = hCA IV (Homo sapiens, UniProt P22748); assay: stopped-flow CA catalysed CO2 hydration assay, hCA IV
hCA IV, sequence (P22748 19-312): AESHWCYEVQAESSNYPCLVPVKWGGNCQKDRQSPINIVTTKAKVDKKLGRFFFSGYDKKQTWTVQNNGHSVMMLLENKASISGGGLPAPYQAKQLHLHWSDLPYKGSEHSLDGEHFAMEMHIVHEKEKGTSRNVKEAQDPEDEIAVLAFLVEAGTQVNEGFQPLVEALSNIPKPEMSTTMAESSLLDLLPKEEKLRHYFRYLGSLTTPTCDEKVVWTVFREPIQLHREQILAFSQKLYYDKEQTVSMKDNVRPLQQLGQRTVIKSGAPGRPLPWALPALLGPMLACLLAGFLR
Experimental: as §1

hCA II = hCA II (Homo sapiens, UniProt P00918); assay: stopped-flow CA catalysed CO2 hydration assay, hCA II
Experimental: as §1

[1] = within the panel hCA I, II, IV, VII
[2] = read-out: hCA Ki (μM) hCA I, recombinant enzyme, stopped-flow CO2 hydration, 15 min preincubation, pH 8.3
[3] = read-out: hCA Ki (μM) hCA VII, recombinant enzyme, stopped-flow CO2 hydration, 15 min preincubation, pH 8.3
[4] = read-out: hCA Ki (μM) hCA IV, recombinant enzyme, stopped-flow CO2 hydration, 15 min preincubation, pH 8.3
[5] = read-out: hCA Ki (μM) hCA II, recombinant enzyme, stopped-flow CO2 hydration, 15 min preincubation, pH 8.3

hCA I, sequence (P00915 whole entry): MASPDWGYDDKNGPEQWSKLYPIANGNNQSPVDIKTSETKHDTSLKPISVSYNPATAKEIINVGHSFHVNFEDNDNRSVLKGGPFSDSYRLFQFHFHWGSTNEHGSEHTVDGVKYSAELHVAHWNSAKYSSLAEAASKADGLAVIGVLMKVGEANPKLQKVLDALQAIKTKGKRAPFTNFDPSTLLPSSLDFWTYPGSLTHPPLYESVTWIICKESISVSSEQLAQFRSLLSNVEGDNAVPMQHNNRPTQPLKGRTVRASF

| Compound | Ki (hCA I) [µM] | Ki (hCA VII) [µM] | Ki (hCA IV) [µM] | Ki (hCA II) [µM] | melting point [°C] | also measured |
| --- | --- | --- | --- | --- | --- | --- |
| Cc1ccc(-n2cccn2)cc1S(N)(=O)=O [Compound 7b, 2-Methyl-5-(^1H-pyrazol-1-yl)benzenesulfonamide] | > 10 | > 10 | 0.56 | > 10 | 147 to 149 | hCA IV inhibition, in words (hCA IV): potent inhibition of hCA IV; isoform selectivity for hCA IV, in words (hCA IV; [1]): high selectivity |
| Cc1cc(-n2cccn2)ccc1S(N)(=O)=O [Compound 7d, 2-Methyl-4-(^1H-pyrazol-1-yl)benzenesulfonamide] | 0.096 | 0.014 | 3.42 | 0.008 | 161 to 163 | – |
| Cc1ccc(S(N)(=O)=O)cc1-n1cccn1 [Compound 7f] | – | – | – | – | – | Ki (hCA I; [2]): 1.23 µM; Ki (hCA VII; [3]): 0.059 µM; Ki (hCA IV; [4]): > 10 µM; Ki (hCA II; [5]): 0.059 µM |
| COc1ccc(-n2cccn2)cc1S(N)(=O)=O [Compound 7h] | – | – | – | – | – | Ki (hCA I; [2]): > 10 µM; Ki (hCA VII; [3]): > 10 µM; hCA IV inhibition, in words (hCA IV): loss of hCA IV inhibition activity; Ki (hCA IV; [4]): > 10 µM; Ki (hCA II; [5]): > 10 µM |
| COc1cc(-n2nc(C)cc2C)ccc1S(N)(=O)=O [Compound 7i, 4-(3,5-Dimethyl-^1H-pyrazol-1-yl)-2-methoxybenzenesulfonamide] | 8.85 | > 10 | > 10 | > 10 | 156 to 158 | – |
| COc1ccc(S(N)(=O)=O)cc1-n1cccn1 [Compound 7l, 4-Methoxy-3-(^1H-pyrazol-1-yl)benzenesulfonamide] | > 10 | > 10 | > 10 | 6.65 | 255 to 257 | – |
| NS(=O)(=O)c1ccc(Cl)c(-n2cccn2)c1 [Compound 7n, 4-Chloro-3-(^1H-pyrazol-1-yl)benzenesulfonamide] | 3.83 | 0.009 | 0.004 | 0.001 | 204 to 206 | – |
| Cc1nn(-c2ccccc2)c(C)c1S(N)(=O)=O [Compound 8b, 3,5-Dimethyl-1-phenyl-^1H-pyrazole-4-sulfonamide] | 0.54 | 0.53 | > 10 | 0.28 | 161 to 163 | – |
| Cc1ccc(-n2nc(C)c(S(N)(=O)=O)c2C)cc1 [Compound 8c, 3,5-Dimethyl-1-(4-methylphenyl)-^1H-pyrazole-4-sulfonamide] | 0.76 | > 10 | > 10 | 0.74 | 171 to 174 | – |
| Cc1ccccc1-n1nc(C)c(S(N)(=O)=O)c1C [Compound 8e, 3,5-Dimethyl-1-(2-methylphenyl)-^1H-pyrazole-4-sulfonamide] | 0.6 | > 10 | > 10 | 0.091 | 161 to 163 | – |
| NS(=O)(=O)c1cnn(-c2ccc(Cl)cc2)c1 [Compound 8f, 1-(4-Chlorophenyl)-^1H-pyrazole-4-sulfonamide] | 0.19 | > 10 | 7.06 | 0.082 | 147 to 150 | – |
| NS(=O)(=O)c1cnn(-c2cccc(Cl)c2)c1 [Compound 8h, (3-Chlorophenyl)-^1H-pyrazole-4-sulfonamide] | – | – | – | – | – | hCA I inhibition, in words (hCA I): good hCA I, II and VII inhibition activity; Ki (hCA I; [2]): 0.54 µM; hCA VII inhibition, in words (hCA VII): good hCA I, II and VII inhibition activity; Ki (hCA VII; [3]): 0.24 µM; Ki (hCA IV; [4]): 3.74 µM; hCA II inhibition, in words (hCA II): good hCA I, II and VII inhibition activity; Ki (hCA II; [5]): 0.14 µM |
| Cc1nn(-c2cccc(S(N)(=O)=O)c2)c(C)c1S(N)(=O)=O [Compound 9a, 3,5-Dimethyl-1-(3-sulfamoylphenyl)-^1H-pyrazole-4-sulfonamide] | 0.5 | 0.26 | 0.065 | 0.021 | 223 to 225 | – |
| Cc1nn(-c2ccc(S(N)(=O)=O)cc2)c(C)c1S(N)(=O)=O [Compound 9b, 3,5-Dimethyl-1-(4-sulfamoylphenyl)-^1H-pyrazole-4-sulfonamide] | 0.33 | 0.035 | 0.111 | 0.005 | 272 to 274 | – |
| NS(=O)(=O)c1ccc(-n2cc(S(N)(=O)=O)cn2)cc1 [Compound 9c, 1-(4-Sulfamoylphenyl)-^1H-pyrazole-4-sulfonamide] | 0.2 | 0.041 | 0.025 | 0.002 | 254 to 257 | – |
| Cc1cc(-n2cc(S(N)(=O)=O)cn2)ccc1S(N)(=O)=O [Compound 9g, 1-(3-Methyl-4-sulfamoylphenyl)-^1H-pyrazole-4-sulfonamide] | – | – | – | – | 205 to 207 | Ki (hCA I; [2]): 0.1 µM; Ki (hCA VII; [3]): 0.005 µM; Ki (hCA IV; [4]): 5.8 µM; Ki (hCA II; [5]): 0.049 µM |

Continued, in another order:

| Ki (hCA I) [µM] | Ki (hCA VII) [µM] | Ki (hCA IV) [µM] | Ki (hCA II) [µM] | melting point [°C] | Compound | also measured |
| --- | --- | --- | --- | --- | --- | --- |
| 4.78 | 0.8 | > 10 | 0.072 | 323 to 325 | NS(=O)(=O)c1ccc(-n2cccn2)cc1 [Compound 7a, 4-(^1H-pyrazol-1-yl)benzenesulfonamide] | – |
| 0.26 | 0.04 | 0.033 | 0.004 | 194 to 196 | Cc1cc(C)n(-c2ccc(S(N)(=O)=O)c(C)c2)n1 [Compound 7c, 4-(3,5-Dimethyl-^1H-pyrazol-1-yl)-2-methylbenzenesulfonamide] | – |
| 4.21 | 0.194 | > 10 | 0.381 | 112 to 114 | Cc1cc(C)n(-c2cc(S(N)(=O)=O)ccc2C)n1 [Compound 7e, 3-(3,5-Dimethyl-^1H-pyrazol-1-yl)-4-methylbenzenesulfonamide] | – |
| > 10 | > 10 | > 10 | > 10 | 195 to 197 | COc1ccc(-n2nc(C)cc2C)cc1S(N)(=O)=O [Compound 7g, 5-(3,5-Dimethyl-^1H-pyrazol-1-yl)-2-methoxybenzenesulfonamide] | – |
| > 10 | 0.387 | > 10 | > 10 | 221 to 223 | COc1cc(-n2cccn2)ccc1S(N)(=O)=O [Compound 7j, 2-Methoxy-4-(^1H-pyrazol-1-yl)benzenesulfonamide] | isoform selectivity for hCA VII, in words (hCA VII; [1]): quite notable |
| > 10 | > 10 | > 10 | > 10 | 167 to 170 | COc1ccc(S(N)(=O)=O)cc1-n1nc(C)cc1C [Compound 7k, 3-(3,5-Dimethyl-^1H-pyrazol-1-yl)-4-methoxybenzenesulfonamide] | hCA I inhibition, in words (hCA I): inactive throughout the panel; hCA VII inhibition, in words (hCA VII): inactive throughout the panel; hCA IV inhibition, in words (hCA IV): inactive throughout the panel; hCA II inhibition, in words (hCA II): inactive throughout the panel |
| 0.066 | 0.328 | 0.086 | 0.085 | 181 to 183 | NS(=O)(=O)c1ccc(-n2cccn2)cc1Cl [Compound 7m, 2-Chloro-4-(^1H-pyrazol-1-yl)benzenesulfonamide] | – |
| 0.462 | 0.017 | 0.084 | 0.004 | – | Cc1cc(C)n(-c2ccc(S(N)(=O)=O)cc2)n1 [Compound 7o, 4-(3,5-Dimethyl-^1H-pyrazol-1-yl)benzenesulfonamide] | – |
| 0.76 | > 10 | > 10 | 5.33 | 164 to 166 | Cc1nn(-c2ccc(Cl)cc2)c(C)c1S(N)(=O)=O [Compound 8a, 1-(4-Chlorophenyl)-3,5-dimethyl-^1H-pyrazole-4-sulfonamide] | – |
| 0.27 | 0.94 | > 10 | 0.24 | 174 to 176 | Cc1cccc(-n2nc(C)c(S(N)(=O)=O)c2C)c1 [Compound 8d, 3,5-Dimethyl-1-(3-methylphenyl)-^1H-pyrazole-4-sulfonamide] | – |
| 0.94 | 0.46 | 9.49 | 1.08 | 182 to 184 | Cc1nn(-c2cccc(Cl)c2)c(C)c1S(N)(=O)=O [Compound 8g, 1-(3-Chlorophenyl)-3,5-dimethyl-^1H-pyrazole-4-sulfonamide] | – |
| 0.62 | > 10 | 7.19 | 2.64 | 204 to 206 | Cc1nn(-c2ccccc2Cl)c(C)c1S(N)(=O)=O [Compound 8i, 1-(2-Chlorophenyl)-3,5-dimethyl-^1H-pyrazole-4-sulfonamide] | – |
| > 10 | > 10 | – | > 10 | – | Cc1ccc(-n2nc(C)c(S(N)(=O)=O)c2C)cc1S(N)(=O)=O [Compound 9d, 3,5-Dimethyl-1-(4-methyl-3-sulfamoylphenyl)-^1H-pyrazole-4-sulfonamide] | – |
| 0.3 | 0.068 | 0.24 | 0.004 | 217 to 220 | Cc1ccc(-n2cc(S(N)(=O)=O)cn2)cc1S(N)(=O)=O [Compound 9e, 1-(4-Methyl-3-sulfamoylphenyl)-^1H-pyrazole-4-sulfonamide] | – |
| 0.47 | 0.019 | 0.022 | 0.002 | 143 to 146 | Cc1cc(-n2nc(C)c(S(N)(=O)=O)c2C)ccc1S(N)(=O)=O [Compound 9f, 3,5-Dimethyl-1-(3-methyl-4-sulfamoylphenyl)-^1H-pyrazole-4-sulfonamide] | – |
